# Assay results reported in PubChem BioAssay AID1259407 (Chemical Carcinogenesis Research Information System (CCRIS), 2018).
# The source made the active and inactive calls. No rule for the calls is given here.
# System: CCRIS mutagenicity, Ames/micronucleus/aberration tests
# Assay: CCRIS mutagenicity studies
# [1] = Test System: AMES SALMONELLA TYPHIMURIUM, Strain/Indicator: TA98, Metabolic Activation: NONE, Method: PREINCUBATION
# [2] = Test System: AMES SALMONELLA TYPHIMURIUM, Strain/Indicator: TA100, Metabolic Activation: NONE, Method: PREINCUBATION
# [3] = Test System: AMES SALMONELLA TYPHIMURIUM, Strain/Indicator: TA1535, Metabolic Activation: NONE, Method: PREINCUBATION
# [4] = Test System: AMES SALMONELLA TYPHIMURIUM, Strain/Indicator: TA1537, Metabolic Activation: NONE, Method: PREINCUBATION
# [5] = Test System: AMES SALMONELLA TYPHIMURIUM, Strain/Indicator: TA98, Metabolic Activation: NONE, Method: STANDARD PLATE
# [6] = Test System: AMES SALMONELLA TYPHIMURIUM, Strain/Indicator: TA98, Metabolic Activation: HAMSTER, LIVER, S-9, AROCLOR 1254 (10%), Method: PREINCUBATION
# [7] = Test System: AMES SALMONELLA TYPHIMURIUM, Strain/Indicator: TA98, Metabolic Activation: RAT, LIVER, S-9, AROCLOR 1254 (10%), Method: PREINCUBATION
# [8] = Test System: AMES SALMONELLA TYPHIMURIUM, Strain/Indicator: TA100, Metabolic Activation: HAMSTER, LIVER, S-9, AROCLOR 1254 (10%), Method: PREINCUBATION
# [9] = Test System: AMES SALMONELLA TYPHIMURIUM, Strain/Indicator: TA100, Metabolic Activation: RAT, LIVER, S-9, AROCLOR 1254 (10%), Method: PREINCUBATION
structure (smiles),measurement,setting,value
CN1C(=O)CC[C@H]1c1cccnc1,mutagenic call,[1],inactive; negative
same,mutagenic call,"Test System: AMES SALMONELLA TYPHIMURIUM, Strain/Indicator: TA98, Metabolic Activation: RAT, LIVER, S-9, AROCLOR 1254 (5%), Method: PREINCUBATION",inactive; negative
same,mutagenic call,[2],inactive; negative
same,mutagenic call,"Test System: AMES SALMONELLA TYPHIMURIUM, Strain/Indicator: TA100, Metabolic Activation: RAT, LIVER, S-9, AROCLOR 1254 (5%), Method: PREINCUBATION",inactive; negative
same,mutagenic call,[3],inactive; negative
same,mutagenic call,"Test System: AMES SALMONELLA TYPHIMURIUM, Strain/Indicator: TA1535, Metabolic Activation: RAT, LIVER, S-9, AROCLOR 1254 (5%), Method: PREINCUBATION",inactive; negative
same,mutagenic call,[4],inactive; negative
same,mutagenic call,"Test System: AMES SALMONELLA TYPHIMURIUM, Strain/Indicator: TA1537, Metabolic Activation: RAT, LIVER, S-9, AROCLOR 1254 (5%), Method: PREINCUBATION",inactive; negative
same,mutagenic call,"Test System: AMES SALMONELLA TYPHIMURIUM, Strain/Indicator: TA1538, Metabolic Activation: NONE, Method: PREINCUBATION",inactive; negative
same,mutagenic call,"Test System: AMES SALMONELLA TYPHIMURIUM, Strain/Indicator: TA1538, Metabolic Activation: RAT, LIVER, S-9, AROCLOR 1254 (5%), Method: PREINCUBATION",inactive; negative
COC(=O)c1cc2ccc3ccc[n+](C)c3c2[nH]1,mutagenic call,[5],inactive; negative
same,mutagenic call,"Test System: E. COLI, Strain/Indicator: WP2 TM9, Metabolic Activation: NONE, Method: STANDARD PLATE",inactive; negative
C=CCSSSCC=C,mutagenic call,"Test System: UDS RAT HEPATOCYTES, Strain/Indicator: THY INCORP, Metabolic Activation: NONE, Method: AUTORADIOGRAPHY",inactive; negative
c1ccc(N=NNc2ccccc2)cc1,mutagenic call,"End Point: IN VIVO MICRONUCLEUS, Test System: BONE MARROW, Species: MOUSE, Strain/Sex: B6C3F1/MALE, Route: GAVAGE",active; positive
same,mutagenic call,[6],active; positive
same,mutagenic call,[1],inactive; negative
same,mutagenic call,[7],active; positive
same,mutagenic call,[8],active; positive
same,mutagenic call,[2],inactive; negative
same,mutagenic call,[9],active; positive
same,mutagenic call,"Test System: AMES SALMONELLA TYPHIMURIUM, Strain/Indicator: TA1535, Metabolic Activation: HAMSTER, LIVER, S-9, AROCLOR 1254 (10%), Method: PREINCUBATION",inactive; negative
same,mutagenic call,[3],inactive; negative
same,mutagenic call,"Test System: AMES SALMONELLA TYPHIMURIUM, Strain/Indicator: TA1535, Metabolic Activation: RAT, LIVER, S-9, AROCLOR 1254 (10%), Method: PREINCUBATION",inactive; negative
same,mutagenic call,"Test System: AMES SALMONELLA TYPHIMURIUM, Strain/Indicator: TA1537, Metabolic Activation: HAMSTER, LIVER, S-9, AROCLOR 1254 (10%), Method: PREINCUBATION",active; positive
same,mutagenic call,[4],inactive; negative
same,mutagenic call,"Test System: AMES SALMONELLA TYPHIMURIUM, Strain/Indicator: TA1537, Metabolic Activation: RAT, LIVER, S-9, AROCLOR 1254 (10%), Method: PREINCUBATION",active; positive
CC(C)c1cc(-c2ccccc2)cc(C(C)C)c1N,mutagenic call,[5],inactive; negative
same,mutagenic call,"Test System: AMES SALMONELLA TYPHIMURIUM, Strain/Indicator: TA98, Metabolic Activation: RAT LIVER S-9, AROCLOR, Method: STANDARD PLATE",inactive; negative
same,mutagenic call,"Test System: AMES SALMONELLA TYPHIMURIUM, Strain/Indicator: TA100, Metabolic Activation: NONE, Method: STANDARD PLATE",inactive; negative
same,mutagenic call,"Test System: AMES SALMONELLA TYPHIMURIUM, Strain/Indicator: TA100, Metabolic Activation: RAT LIVER S-9, AROCLOR, Method: STANDARD PLATE",inactive; negative
S=c1[nH]c2ccccc2[nH]1,mutagenic call,"Test System: AMES SALMONELLA TYPHIMURIUM, Strain/Indicator: TA97, Metabolic Activation: HAMSTER, LIVER, S-9, AROCLOR 1254 (10%), Method: PREINCUBATION",inactive; negative
same,mutagenic call,"Test System: AMES SALMONELLA TYPHIMURIUM, Strain/Indicator: TA97, Metabolic Activation: HAMSTER, LIVER, S-9, AROCLOR 1254 (30%), Method: PREINCUBATION",inactive; negative
same,mutagenic call,"Test System: AMES SALMONELLA TYPHIMURIUM, Strain/Indicator: TA97, Metabolic Activation: NONE, Method: PREINCUBATION",inactive; negative
same,mutagenic call,"Test System: AMES SALMONELLA TYPHIMURIUM, Strain/Indicator: TA97, Metabolic Activation: RAT, LIVER, S-9, AROCLOR 1254 (10%), Method: PREINCUBATION",inactive; negative
same,mutagenic call,"Test System: AMES SALMONELLA TYPHIMURIUM, Strain/Indicator: TA97, Metabolic Activation: RAT, LIVER, S-9, AROCLOR 1254 (30%), Method: PREINCUBATION",inactive; negative
same,mutagenic call,[6],inactive; negative
same,mutagenic call,"Test System: AMES SALMONELLA TYPHIMURIUM, Strain/Indicator: TA98, Metabolic Activation: HAMSTER, LIVER, S-9, AROCLOR 1254 (30%), Method: PREINCUBATION",inactive; negative
same,mutagenic call,[1],inactive; negative
same,mutagenic call,[7],inactive; negative
same,mutagenic call,"Test System: AMES SALMONELLA TYPHIMURIUM, Strain/Indicator: TA98, Metabolic Activation: RAT, LIVER, S-9, AROCLOR 1254 (30%), Method: PREINCUBATION",inactive; negative
same,mutagenic call,[8],inactive; negative
same,mutagenic call,"Test System: AMES SALMONELLA TYPHIMURIUM, Strain/Indicator: TA100, Metabolic Activation: HAMSTER, LIVER, S-9, AROCLOR 1254 (30%), Method: PREINCUBATION",inactive; negative
same,mutagenic call,[2],inactive; negative
same,mutagenic call,[9],inactive; negative
same,mutagenic call,"Test System: AMES SALMONELLA TYPHIMURIUM, Strain/Indicator: TA100, Metabolic Activation: RAT, LIVER, S-9, AROCLOR 1254 (30%), Method: PREINCUBATION",inactive; negative
same,mutagenic call,"Test System: AMES SALMONELLA TYPHIMURIUM, Strain/Indicator: TA1535, Metabolic Activation: HAMSTER, LIVER, S-9, AROCLOR 1254 (10 OR 30%), Method: PREINCUBATION",inactive; negative
same,mutagenic call,[3],inactive; negative
same,mutagenic call,"Test System: AMES SALMONELLA TYPHIMURIUM, Strain/Indicator: TA1535, Metabolic Activation: RAT, LIVER, S-9, AROCLOR 1254 (10 OR 30%), Method: PREINCUBATION",inactive; negative
